pEC50, pIC50: −log10 of the molar value. Entries after “also recorded” stand apart in the source; their conditions may differ.
Assays:
AKT1 = molecular target: T1, AKT1 (Homo sapiens, UniProt P31749); experiment: Kinase activity in cell-free assay (HotSpot); assay type: biochemical
T1 construct: purchased Reaction Biology Corp
Description: (§1) Kinase activity in the presence of C96 was performed by using the HotSpot technology (Reaction Biology Corp., Malvern, PA, USA). Briefly, kinases (PI3Kα, β, δ, γ, AKT1, 2, 3, and mTOR) and substrates were diluted in reaction buffer. Subsequently, 5 nL of serially diluted C96 (in pure DMSO) was delivered into diluted kinase and substrate mixture by using Echo 550 (LabCyte Inc. Sunnyvale, CA). The reaction was started by adding ^33P-ATP (hot ATP) into the reaction mixture (the final concentration was 10 μM) and stopped after 2 hrs incubation at room temperature. The un-reacted hot ATP was washed away before detection.

AKT2 = molecular target: T2, AKT2 (Homo sapiens, UniProt P31751); experiment: Kinase activity in cell-free assay (HotSpot); assay type: biochemical
T2 construct: purchased Reaction Biology Corp
Description: as §1

AKT3 = molecular target: T3, AKT3 (Homo sapiens, UniProt Q9Y243); experiment: Kinase activity in cell-free assay (HotSpot); assay type: biochemical
T3 construct: purchased Reaction Biology Corp
Description: as §1

PI3Kα = molecular target: T4, PI3Kα (Homo sapiens, UniProt P42336); experiment: Kinase activity in cell-free assay (HotSpot); assay type: biochemical
T4 construct: purchased Reaction Biology Corp
Description: as §1

PI3Kβ = molecular target: T5, PI3Kβ (Homo sapiens, UniProt P42338); experiment: Kinase activity in cell-free assay (HotSpot); assay type: biochemical
T5 construct: purchased Reaction Biology Corp
Description: as §1

PI3Kγ = molecular target: T6, PI3Kγ (Homo sapiens, UniProt P48736); experiment: Kinase activity in cell-free assay (HotSpot); assay type: biochemical
T6 construct: purchased Reaction Biology Corp
Description: as §1

PI3Kδ = molecular target: T7, PI3Kδ (Homo sapiens, UniProt O00329); experiment: Kinase activity in cell-free assay (HotSpot); assay type: biochemical
T7 construct: purchased Reaction Biology Corp
Description: as §1

mTOR = molecular target: T8, mTOR (Homo sapiens, UniProt P42345); experiment: Kinase activity in cell-free assay (HotSpot); assay type: biochemical
T8 construct: purchased Reaction Biology Corp
Description: as §1

JJN3 xenograft = experiment: Myeloma xenograft study; assay type: in vivo, nude mice
Description: To further evaluate the anti-myeloma efficacy of C96 in vivo, a human multiple myeloma xenograft model was established by subcutaneous injection of JJN3 into nude mice. When these tumors were palpable, mice were randomly divided into two groups (n=5) and one of them were orally administrated C96 (100 mg/kg body weight, 1/10 of the oral LD50), the other one were given the same volume of vehicle on a daily base for continued 16 days. Tumor sizes and body weight were monitored every other day. […] In contrast, the tumors in the vehicle group grew in a steady rate.
Figure 7 C96 delays myeloma tumor growth in a xenograft mouse model (A) JJN3 cells were injected subcutaneously into nude mice with a density of 30 million cells/site/mouse. When tumors were palpable, mice (n=5/group) were orally given C96 (100 mg/kg body weight) in PBS containing 10% Tween 80 and 10% DMSO daily for continuous 16 days. Tumor volumes were monitored every other day. (B) Mouse body weight was monitored every other day. (C) At the end of the experiment, tumor samples from each group were subjected to immunoblotting analysis for the expression levels of p-AKT, T-AKT, p-mTOR and mTOR with specific antibodies. GAPDH was used as a loading control.
JJN3 cells (30 million cells/injection) were inoculated s.c. into the right flanks of nude mice (5-6 weeks old, female, Shanghai Slac Laboratory Animal Co. Ltd., Shanghai). When tumors were palpable, mice were randomly divided into two groups (n=5). One group was orally administrated C96 (100 mg/kg body weight, or 1/10 oral LD50) dissolved in PBS containing 10% Tween 80 and DMSO daily for continued 16 days, another group was received the vehicle only. Tumor sizes were measured every other day with a caliper and calculated according to the formula (V=0.5236a²b, where a is the smallest superficial diameter and b is the largest superficial diameter). Body weight of each mouse was also monitored. At the end of the experiment, mice were sacrificed in a CO2 chamber containing dry ice. Tumor tissues were then excised, weighed, and snap-frozen in liquid nitrogen for further studies. To examine protein expression, tumor tissues were minced and ultrasonicated in the lysis buffer to extract proteins, which were further applied for immunoblotting analyses using specific antibodies against AKT, p-AKT, p-mTOR, mTOR, and GAPDH. This xenograft study was carried out in accordance with The Code of Ethics of the World Medical Association (Declaration of Helsinki) for experiments in animals and it was approved by the Animal Ethics and Welfare Review Board of Soochow University.

T2 sequence (P31751 whole entry): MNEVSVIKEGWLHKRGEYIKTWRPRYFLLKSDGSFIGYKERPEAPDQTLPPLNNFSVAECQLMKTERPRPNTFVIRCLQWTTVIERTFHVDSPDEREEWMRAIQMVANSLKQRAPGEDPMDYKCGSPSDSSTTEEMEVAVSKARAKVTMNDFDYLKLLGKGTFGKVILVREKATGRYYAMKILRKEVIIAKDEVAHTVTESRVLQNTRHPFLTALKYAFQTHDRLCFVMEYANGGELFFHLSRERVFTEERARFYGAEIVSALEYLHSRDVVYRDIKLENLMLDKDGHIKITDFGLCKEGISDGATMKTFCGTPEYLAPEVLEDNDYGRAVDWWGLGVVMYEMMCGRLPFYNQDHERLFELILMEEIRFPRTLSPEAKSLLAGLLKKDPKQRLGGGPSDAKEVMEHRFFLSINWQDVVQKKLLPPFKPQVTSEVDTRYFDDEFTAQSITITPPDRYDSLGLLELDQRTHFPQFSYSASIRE
T1 sequence (P31749 whole entry): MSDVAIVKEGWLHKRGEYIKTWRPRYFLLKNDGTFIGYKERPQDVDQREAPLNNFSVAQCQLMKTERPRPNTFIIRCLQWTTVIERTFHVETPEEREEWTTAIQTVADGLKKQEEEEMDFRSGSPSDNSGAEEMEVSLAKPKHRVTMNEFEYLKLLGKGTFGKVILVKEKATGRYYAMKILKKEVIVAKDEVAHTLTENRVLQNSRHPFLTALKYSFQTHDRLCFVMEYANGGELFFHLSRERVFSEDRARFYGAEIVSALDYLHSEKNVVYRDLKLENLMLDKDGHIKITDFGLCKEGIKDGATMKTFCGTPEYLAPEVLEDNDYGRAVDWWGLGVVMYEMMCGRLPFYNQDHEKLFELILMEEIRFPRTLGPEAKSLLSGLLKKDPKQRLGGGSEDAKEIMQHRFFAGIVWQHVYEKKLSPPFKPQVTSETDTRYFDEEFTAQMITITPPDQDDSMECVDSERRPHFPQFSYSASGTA
T3 sequence (Q9Y243 whole entry): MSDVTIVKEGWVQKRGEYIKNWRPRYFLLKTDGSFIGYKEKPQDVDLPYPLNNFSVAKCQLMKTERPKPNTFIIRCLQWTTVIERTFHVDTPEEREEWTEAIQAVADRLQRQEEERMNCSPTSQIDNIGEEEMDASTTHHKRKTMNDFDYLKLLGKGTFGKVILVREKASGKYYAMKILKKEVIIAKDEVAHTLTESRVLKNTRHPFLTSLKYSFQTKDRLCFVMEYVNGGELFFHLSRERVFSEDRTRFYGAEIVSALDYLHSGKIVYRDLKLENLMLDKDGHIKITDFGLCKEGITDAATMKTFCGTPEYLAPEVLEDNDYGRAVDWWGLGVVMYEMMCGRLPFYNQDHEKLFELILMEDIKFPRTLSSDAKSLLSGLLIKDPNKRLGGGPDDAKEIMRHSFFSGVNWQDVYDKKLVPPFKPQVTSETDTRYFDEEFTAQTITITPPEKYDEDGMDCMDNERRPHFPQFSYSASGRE
T4 sequence (P42336 whole entry): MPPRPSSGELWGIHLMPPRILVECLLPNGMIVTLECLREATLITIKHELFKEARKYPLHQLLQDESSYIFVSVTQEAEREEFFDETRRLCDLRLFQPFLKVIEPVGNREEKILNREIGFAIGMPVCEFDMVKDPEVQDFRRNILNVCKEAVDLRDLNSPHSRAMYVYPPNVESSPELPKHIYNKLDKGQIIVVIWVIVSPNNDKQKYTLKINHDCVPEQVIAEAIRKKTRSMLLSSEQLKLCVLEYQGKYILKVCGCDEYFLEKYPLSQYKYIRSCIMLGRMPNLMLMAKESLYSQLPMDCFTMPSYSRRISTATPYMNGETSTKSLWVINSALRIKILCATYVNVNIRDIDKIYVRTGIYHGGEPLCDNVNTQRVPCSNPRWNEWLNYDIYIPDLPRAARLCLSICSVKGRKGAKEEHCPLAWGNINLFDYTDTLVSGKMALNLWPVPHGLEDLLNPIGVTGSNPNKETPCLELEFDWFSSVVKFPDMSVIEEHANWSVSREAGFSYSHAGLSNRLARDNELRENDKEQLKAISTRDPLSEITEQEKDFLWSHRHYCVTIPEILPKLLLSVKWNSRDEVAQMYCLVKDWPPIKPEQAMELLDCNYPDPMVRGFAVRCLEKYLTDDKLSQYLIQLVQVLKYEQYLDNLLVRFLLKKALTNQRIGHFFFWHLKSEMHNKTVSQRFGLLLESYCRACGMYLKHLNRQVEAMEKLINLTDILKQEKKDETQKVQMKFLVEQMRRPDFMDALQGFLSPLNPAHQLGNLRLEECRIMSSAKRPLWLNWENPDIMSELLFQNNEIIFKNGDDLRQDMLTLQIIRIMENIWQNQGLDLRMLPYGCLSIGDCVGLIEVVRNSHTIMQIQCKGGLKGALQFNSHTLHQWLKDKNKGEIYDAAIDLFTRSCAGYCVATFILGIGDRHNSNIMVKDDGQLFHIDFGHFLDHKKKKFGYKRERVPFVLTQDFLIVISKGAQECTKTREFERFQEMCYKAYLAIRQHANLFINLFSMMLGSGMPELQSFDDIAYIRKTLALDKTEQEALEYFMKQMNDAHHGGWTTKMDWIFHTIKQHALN
T4 sequence (P27986 whole entry partner): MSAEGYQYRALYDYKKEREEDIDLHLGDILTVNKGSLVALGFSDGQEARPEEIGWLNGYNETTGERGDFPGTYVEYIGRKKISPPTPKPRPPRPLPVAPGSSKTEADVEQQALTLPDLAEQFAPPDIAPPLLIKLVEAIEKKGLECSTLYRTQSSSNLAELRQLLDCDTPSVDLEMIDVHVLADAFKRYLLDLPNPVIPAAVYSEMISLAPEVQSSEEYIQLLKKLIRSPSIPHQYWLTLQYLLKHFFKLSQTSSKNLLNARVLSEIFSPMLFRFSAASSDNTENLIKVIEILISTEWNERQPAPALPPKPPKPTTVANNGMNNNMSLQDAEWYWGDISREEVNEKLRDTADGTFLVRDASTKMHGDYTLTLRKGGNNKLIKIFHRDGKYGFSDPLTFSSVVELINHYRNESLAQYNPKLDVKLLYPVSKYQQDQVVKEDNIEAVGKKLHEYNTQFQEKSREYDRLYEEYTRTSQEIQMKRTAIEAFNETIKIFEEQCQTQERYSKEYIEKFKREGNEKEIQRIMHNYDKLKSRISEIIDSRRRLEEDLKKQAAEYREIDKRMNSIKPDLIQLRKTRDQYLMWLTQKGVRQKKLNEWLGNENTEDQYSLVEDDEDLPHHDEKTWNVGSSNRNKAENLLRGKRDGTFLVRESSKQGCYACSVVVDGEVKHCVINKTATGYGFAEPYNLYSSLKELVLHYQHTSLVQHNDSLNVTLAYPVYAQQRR
T7 sequence (O00329 whole entry): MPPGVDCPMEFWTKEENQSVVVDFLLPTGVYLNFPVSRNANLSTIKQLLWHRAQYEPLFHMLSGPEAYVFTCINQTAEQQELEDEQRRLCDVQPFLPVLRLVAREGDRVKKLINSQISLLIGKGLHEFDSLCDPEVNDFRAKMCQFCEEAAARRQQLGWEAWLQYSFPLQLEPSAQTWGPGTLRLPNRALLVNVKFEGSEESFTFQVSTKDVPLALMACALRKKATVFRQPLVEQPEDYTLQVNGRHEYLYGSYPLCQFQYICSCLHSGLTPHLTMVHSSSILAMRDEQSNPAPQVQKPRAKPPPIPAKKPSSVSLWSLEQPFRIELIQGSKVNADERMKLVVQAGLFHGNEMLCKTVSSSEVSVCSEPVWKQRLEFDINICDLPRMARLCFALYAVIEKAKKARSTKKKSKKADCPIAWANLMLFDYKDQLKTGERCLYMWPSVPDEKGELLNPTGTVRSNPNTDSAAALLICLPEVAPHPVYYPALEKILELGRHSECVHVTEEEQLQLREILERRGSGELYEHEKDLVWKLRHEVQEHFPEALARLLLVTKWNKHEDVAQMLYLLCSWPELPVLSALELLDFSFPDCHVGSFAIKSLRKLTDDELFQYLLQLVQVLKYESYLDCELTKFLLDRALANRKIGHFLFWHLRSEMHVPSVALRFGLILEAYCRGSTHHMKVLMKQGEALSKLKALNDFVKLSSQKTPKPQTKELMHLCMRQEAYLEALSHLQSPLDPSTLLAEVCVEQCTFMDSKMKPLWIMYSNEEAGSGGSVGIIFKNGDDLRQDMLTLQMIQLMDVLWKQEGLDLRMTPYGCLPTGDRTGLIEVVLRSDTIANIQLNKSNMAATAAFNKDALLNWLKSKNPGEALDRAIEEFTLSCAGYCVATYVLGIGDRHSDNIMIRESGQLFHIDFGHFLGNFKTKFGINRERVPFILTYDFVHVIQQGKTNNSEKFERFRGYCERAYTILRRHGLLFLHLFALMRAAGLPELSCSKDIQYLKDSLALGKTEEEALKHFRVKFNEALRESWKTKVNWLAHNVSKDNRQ
T7 sequence (P27986 whole entry partner): as the sequence (P27986 whole entry partner) above

With `O=C1NC(=O)C(=CC=Cc2cccs2)C(=O)N1` [C96, 5-(3-(2-thienyl)-2-propen-1-ylidene)-2,4,6(1H,3H,5H)-pyrimidinetrione] the “enzymatic activity AKT1” value (AKT1; 300 μM) was “higher than 50%”, the AKT1 catalytic activity (AKT1; C96 1.00E-04 M) was 89.13% and the AKT1 catalytic activity (AKT1; C96 1.11E-05 M) was 104.72%. The AKT1 catalytic activity (AKT1; C96 1.23E-06 M) was 101.71%, the AKT1 catalytic activity (AKT1; C96 1.37E-07 M) was 102.27% and the AKT1 catalytic activity (AKT1; C96 1.52E-08 M) was 94.32%. It also gave an AKT1 catalytic activity (AKT1; C96 3.00E-04 M) of 57.61%, an AKT1 catalytic activity (AKT1; C96 3.33E-05 M) of 100.86% and an AKT1 catalytic activity (AKT1; C96 3.70E-06 M) of 110.72%. For the same compound, the AKT1 catalytic activity (AKT1; C96 4.12E-07 M) was 99.76%, the AKT1 catalytic activity (AKT1; C96 4.57E-08 M) was 103.80% and the “IC50 AKT1” value (AKT1; cell-free) was “not detectable”. The “enzymatic activity AKT2” value (AKT2; 300 μM) was “higher than 50%”, the AKT2 catalytic activity (AKT2; C96 1.11E-05 M) was 102.16% and the AKT2 catalytic activity (AKT2; C96 1.23E-06 M) was 97.18%. The AKT2 catalytic activity (AKT2; C96 1.37E-07 M) was 97.27%, the AKT2 catalytic activity (AKT2; C96 1.52E-08 M) was 95.67% and the AKT2 catalytic activity (AKT2; C96 3.00E-04 M) was 86.10%. It also gave an AKT2 catalytic activity (AKT2; C96 3.33E-05 M) of 100.38%, an AKT2 catalytic activity (AKT2; C96 3.70E-06 M) of 102.25% and an AKT2 catalytic activity (AKT2; C96 4.12E-07 M) of 100.48%. For the same compound, the AKT2 catalytic activity (AKT2; C96 4.57E-08 M) was 100.26%, the “IC50 AKT2” value (AKT2; cell-free) was “not detectable” and the “enzymatic activity AKT3” value (AKT3; 300 μM) was “higher than 50%”. For the same compound, the AKT3 catalytic activity (AKT3; C96 1.00E-04 M) was 98.26%, the AKT3 catalytic activity (AKT3; C96 1.11E-05 M) was 100.98% and the AKT3 catalytic activity (AKT3; C96 1.23E-06 M) was 100.31%. For the same compound, the AKT3 catalytic activity (AKT3; C96 1.37E-07 M) was 100.29%, the AKT3 catalytic activity (AKT3; C96 1.52E-08 M) was 109.49% and the AKT3 catalytic activity (AKT3; C96 3.00E-04 M) was 79.18%. For the same compound, the AKT3 catalytic activity (AKT3; C96 3.33E-05 M) was 108.59%, the AKT3 catalytic activity (AKT3; C96 3.70E-06 M) was 117.76% and the AKT3 catalytic activity (AKT3; C96 4.12E-07 M) was 106.62%. For the same compound, the AKT3 catalytic activity (AKT3; C96 4.57E-08 M) was 102.54%, the “IC50 AKT3” value (AKT3; cell-free) was “not detectable” and the pEC50 (PI3Kα) was about 5.30. The pIC50 (PI3Kα) was 5.27, the pIC50 (PI3Kβ) was 3.87 and the pIC50 (PI3Kγ) was 3.94. For the same compound, the pEC50 (PI3Kδ) was about 5.30, the pIC50 (PI3Kδ) was 5.15 and the “enzymatic activity mTOR” value (mTOR; 300 μM) was “higher than 50%”. For the same compound, the mTOR catalytic activity (mTOR; C96 1.00E-04 M) was 101.78%, the mTOR catalytic activity (mTOR; C96 1.11E-05 M) was 102.93% and the mTOR catalytic activity (mTOR; C96 1.23E-06 M) was 99.81%. It also gave a mTOR catalytic activity (mTOR; C96 1.37E-07 M) of 100.28%, a mTOR catalytic activity (mTOR; C96 1.52E-08 M) of 96.95% and a mTOR catalytic activity (mTOR; C96 3.00E-04 M) of 102.57%. The mTOR catalytic activity (mTOR; C96 3.33E-05 M) was 100.02%, the mTOR catalytic activity (mTOR; C96 3.70E-06 M) was 101.74% and the mTOR catalytic activity (mTOR; C96 4.12E-07 M) was 99.37%. The mTOR catalytic activity (mTOR; C96 4.57E-08 M) was 99.19%, the “IC50 mTOR” value (mTOR; cell-free) was “not detectable” and the “effects on body weight” value (JJN3 xenograft; 100 mg/kg oral daily, 16-day treatment) was “minimal effects”. For the same compound, the gross toxicity (JJN3 xenograft; 100 mg/kg oral daily, 16 days) was “no gross toxicity”, the tumor growth (JJN3 xenograft; 100 mg/kg oral daily, 16 days) was “almost fully suppressed tumor growth; also recorded: delayed MM tumor growth” and the tumor growth suppression (JJN3 xenograft; 100 mg/kg oral daily, within 16 days) was “more than 90%”. The “AKT and mTOR phosphorylation in myeloma tumor tissues” value (JJN3 xenograft; tumors excised at end of experiment, immunoblotting) was “decreased” and the “100 mg/kg body weight dose as fraction of the oral LD50” value (Oral LD50) was 1/10.

— publication PMC4116524, “A virtual screen identified C96 as a novel inhibitor of phosphatidylinositol 3-kinase that displays potent preclinical activity against multiple myeloma in vitro and in vivo” (Oncotarget, 2014)
